What was measured:
(His)6-SOX11-DBD protein = molecular target: T1, (His)6-SOX11-DBD protein (Homo sapiens, UniProt P35716); assay: Surface Plasmon Resonance (SPR) assay; format: binding; details: immobilized recombinant (His)6-SOX11-DBD, 25° C., compounds 5-40 μM, mean of three experiments
T1 construct: Recombinant (His)6-SOX11-DBD protein was immobilized
T1 sequence (P35716 49-117 limits assumed): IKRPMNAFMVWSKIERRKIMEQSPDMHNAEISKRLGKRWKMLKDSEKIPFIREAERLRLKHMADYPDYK

Jeko-1 (SOX11+) = assay: Cell viability assay (CellTiter-Blue resazurin reduction); format: cell-based; details: Homo sapiens, JeKo-1, 72 h, JeKo-1 cells; for IC50: 0-40 μM; for viability at 20 µM: 20 μM compound, normalized to 0.2% DMSO
How it was run: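 Cells were exposed to compound for 72 h, then resazurin reduction (CellTiter-Blue, 2 h) was read by fluorescence and converted to viable cell number via a standard curve. Viability was normalised to 0.2% DMSO-treated cells. IC50 came from a sigmoidal dose-response fit, three separate experiments.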

SMILES | Kd ((His)6-SOX11-DBD protein) [µM] | IC50 (Jeko-1 (SOX11+)) [µM] | viability at 20 µM (Jeko-1 (SOX11+)) [%]
CC1Sc2ccc(C(=O)Nc3ccc(S(=O)(=O)Nc4ccc(N)cc4)cc3)cc2NC1=O (centres unmarked) | 19.6 | > 20 | 88
Cc1ccccc1NS(=O)(=O)c1ccc(NC(=O)c2ccc3c(c2)NC(=O)C(C)S3)cc1 (centres unmarked) | 14.1 | 10 | 9.87
CC1Sc2ccc(C(=O)Nc3cccc(S(=O)(=O)Nc4ccc(F)cc4)c3)cc2NC1=O (centres unmarked) | 8.48 | > 20 | 55.6
CC1Sc2ccc(NC(=O)c3ccc(S(=O)(=O)Nc4ccccc4)c(F)c3)cc2NC1=O (centres unmarked) | 16.1 | > 20 | 75.8
CC1Sc2ccc(C(=O)Nc3ccccc3S(=O)(=O)Nc3ccccc3)cc2NC1=O (centres unmarked) | 29.2 | < 20 | 14.2
O=C1COc2ccc(C(=O)Nc3ccc(S(=O)(=O)Nc4ccccc4)cc3)cc2N1 | 17.9 | > 20 | 61.1
CC1Sc2ccc(C(=O)Nc3ccc(S(=O)(=O)NC4CCCC4)cc3)cc2NC1=O (centres unmarked) | 13.4 | 15 | 36.3
CC1Sc2ccc(NC(=O)c3ccc(S(=O)(=O)Nc4ccccc4)cc3)cc2NC1=O (centres unmarked) | 33.2 | 9 | 33.5
CC1Sc2ccc(C(=O)Nc3ccc(S(=O)(=O)N4CCOCC4)cc3)cc2NC1=O (centres unmarked) | 137 | 11 | 18.9
O=C(Nc1ccc(S(=O)(=O)Nc2ccccc2)cc1)c1ccc2[nH]ncc2c1 | 78.5 | 20 | 47.6
CC1Sc2ccc(C(=O)Nc3ccc(C(=O)Nc4ccccc4)cc3)cc2NC1=O (centres unmarked) | 13.7 | > 20 | 97.5
C[C@@H]1Sc2ccc(C(=O)Nc3ccc(S(=O)(=O)Nc4ccccc4)cc3)cc2NC1=O | 31.9 | 12.5 | 12.8
CC1Sc2ccc(C(=O)Nc3cccc(S(=O)(=O)N4CCCCC4)c3)cc2NC1=O (centres unmarked) | 41.5 | 10 | 0.6
CC1Sc2ccc(C(=O)Nc3ccc(S(=O)(=O)Nc4cc[nH]c(=O)c4)cc3)cc2NC1=O (centres unmarked) | 24.8 | 18 | 34.8
CC1Sc2ccc(C(=O)Nc3cccc(S(=O)(=O)NC4CCCC4)c3)cc2NC1=O (centres unmarked) | 15.4 | 16 | 38.5
Cc1ccc(NS(=O)(=O)c2cccc(NC(=O)c3ccc4c(c3)NC(=O)C(C)S4)c2)cc1 (centres unmarked) | 6.08 | 7 | 2.16
CC1Sc2ccc(C(=O)Nc3cccc(S(=O)(=O)Nc4ccccc4C(F)(F)F)c3)cc2NC1=O (centres unmarked) | 91.7 | > 20 | 73.6

These reach a lower Kd ((His)6-SOX11-DBD protein). Values come first.

Kd ((His)6-SOX11-DBD protein) [µM] | SMILES | IC50 (Jeko-1 (SOX11+)) [µM] | viability at 20 µM (Jeko-1 (SOX11+)) [%]
5.07 | CC1Sc2ccc(C(=O)ONc3ccc(S(=O)(=O)Nc4ccccc4)nc3)cc2NC1=O (centres unmarked) | > 20 | 90
1.16 | Cc1cccc(NS(=O)(=O)c2ccc(NC(=O)c3ccc4c(c3)NC(=O)C(C)S4)cc2)c1 (centres unmarked) | 11 | 0.58
1.26 | CC1Sc2ccc(C(=O)Nc3ccc(S(=O)(=O)Nc4cccc(F)c4)cc3)cc2NC1=O (centres unmarked) | < 20 | 28.2
1.65 | O=C(Nc1ccc(OCc2ccccc2)cc1)c1ccc2snnc2c1 | > 20 | 93.6
2.63 | CC1Sc2ccc(C(=O)Nc3ccc(S(=O)(=O)N4CCCCCC4)cc3)cc2NC1=O (centres unmarked) | 7.5 | 0.46
2.75 | CN1C(=O)CSc2ccc(C(=O)Nc3ccc(S(=O)(=O)N4CCCCC4)c(Cl)c3)cc21 |  | 4.13
4.36 | CC1Sc2ccc(C(=O)Nc3ccc(S(=O)(=O)Nc4ccccc4)c(Cl)c3)cc2NC1=O (centres unmarked) | 5 | 1.8
5.65 | O=C(Nc1ccc(S(=O)(=O)Nc2ccccc2)cc1)c1ccc2snnc2c1 | 5 to 10 | 34.3
5.87 | CCCN1C(=O)CSc2ccc(C(=O)Nc3ccc(S(=O)(=O)N4CCCCC4)cc3)cc21 | 17 | 39.9
1.95 | CC1Sc2ccc(C(=O)Nc3ccc(S(=O)(=O)Nc4ccccc4)cc3)cc2N(C)C1=O (centres unmarked) | 8 | 1.23
0.805 | Nc1ccccc1CC(=O)Nc1cccc(C(=O)Nc2ccc(S(=O)(=O)Nc3ccccc3)cc2)c1 | 11 | 9.92

From patent US20230242496A1, “SOX11 INHIBITORS FOR TREATING MANTLE CELL LYMPHOMA” (Icahn School of Medicine At Mount Sinai, priority 2020, published 2023)
